The source made the active and inactive calls.
Legend:
Large T antigen = Large T antigen (Simian virus 40, UniProt P03070); format: functional, Betapolyomavirus macacae;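 further: Confirmatory-stage PubChem screen for compounds that inhibit SV40 T antigen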
ORF 73 = target: T1, ORF 73 (Human herpesvirus 8, UniProt O40947); assay: KSHV LANA DNA-binding disruption – biochemical, fluorescence polarization, cherry-picked samples, dose response (AID 504725); design: species or system Human gammaherpesvirus 8;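 further: fluorescence polarization of a labeled DNA duplex reporting LANA DNA binding; potency is for inhibitors that block LANA binding to the DNA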
T1 sequence (O40947 whole entry): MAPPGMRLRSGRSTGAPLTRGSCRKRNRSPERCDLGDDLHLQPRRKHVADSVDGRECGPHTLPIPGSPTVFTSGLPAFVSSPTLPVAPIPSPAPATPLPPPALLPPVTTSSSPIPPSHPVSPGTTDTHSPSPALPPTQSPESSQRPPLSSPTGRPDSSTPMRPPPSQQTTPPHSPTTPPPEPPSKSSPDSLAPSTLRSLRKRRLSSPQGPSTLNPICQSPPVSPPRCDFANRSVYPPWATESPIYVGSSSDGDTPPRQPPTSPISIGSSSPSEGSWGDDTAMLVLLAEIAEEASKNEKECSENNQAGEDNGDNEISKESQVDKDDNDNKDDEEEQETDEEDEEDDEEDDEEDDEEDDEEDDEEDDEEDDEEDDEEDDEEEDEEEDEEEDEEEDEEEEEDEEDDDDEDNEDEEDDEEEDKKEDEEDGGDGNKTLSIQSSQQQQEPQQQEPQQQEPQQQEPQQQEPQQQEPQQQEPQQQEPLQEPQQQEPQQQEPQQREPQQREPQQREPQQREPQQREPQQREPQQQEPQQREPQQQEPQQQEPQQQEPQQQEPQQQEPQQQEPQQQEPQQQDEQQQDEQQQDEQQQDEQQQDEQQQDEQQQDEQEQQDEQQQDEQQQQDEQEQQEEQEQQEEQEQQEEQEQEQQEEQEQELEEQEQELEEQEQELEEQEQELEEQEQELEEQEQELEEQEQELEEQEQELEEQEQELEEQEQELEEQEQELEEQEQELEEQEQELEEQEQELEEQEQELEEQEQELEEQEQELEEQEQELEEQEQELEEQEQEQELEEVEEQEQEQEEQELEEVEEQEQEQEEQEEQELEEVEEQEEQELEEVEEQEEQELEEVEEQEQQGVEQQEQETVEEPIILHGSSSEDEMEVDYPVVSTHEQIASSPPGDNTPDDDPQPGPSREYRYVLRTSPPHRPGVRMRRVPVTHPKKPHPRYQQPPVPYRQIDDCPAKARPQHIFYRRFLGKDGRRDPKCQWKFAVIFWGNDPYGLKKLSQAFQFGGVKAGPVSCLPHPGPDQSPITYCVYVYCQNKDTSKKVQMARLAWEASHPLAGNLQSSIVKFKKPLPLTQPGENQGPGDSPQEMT

CHO = CHO cell viability loss, potency – luminescence, cytotoxicity control for TLR9-MyD88 binding inhibitor project, dose response (AID 588339); format: functional, cell-based, hamster; conditions: Cricetulus griseus;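 further: CHO cells stably coexpressing TLR9 and MyD88 fusions from primary screen; compound exposure lasted 48 hours before viability readout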
[1] = target: UDP-galactopyranose mutase (Mycobacterium tuberculosis, UniProt P9WIQ1); assay: Inhibitors of Mycobacterium tuberculosis UDP-galactopyranose mutase (UGM) enzyme Measured in Biochemical System Using Plate Reader - 2105-02_Inhibitor_Dose_CherryPick_Activity. [Related pubchem assays (depositor defined):AID504439]
UDP-galactopyranose mutase, sequence (P9WIQ1 whole entry): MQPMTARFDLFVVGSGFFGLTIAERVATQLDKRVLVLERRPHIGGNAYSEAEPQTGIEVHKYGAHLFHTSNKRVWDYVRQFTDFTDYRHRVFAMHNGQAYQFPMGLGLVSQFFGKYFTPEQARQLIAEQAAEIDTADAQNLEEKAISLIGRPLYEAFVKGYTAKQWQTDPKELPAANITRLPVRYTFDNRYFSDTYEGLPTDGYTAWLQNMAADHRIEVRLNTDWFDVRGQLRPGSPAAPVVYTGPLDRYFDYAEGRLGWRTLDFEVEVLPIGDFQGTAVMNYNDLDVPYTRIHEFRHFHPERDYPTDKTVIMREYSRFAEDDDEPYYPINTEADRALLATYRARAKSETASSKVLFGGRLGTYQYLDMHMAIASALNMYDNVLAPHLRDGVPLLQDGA

Insulin-degrading enzyme [2] = target: T2, Insulin-degrading enzyme (Homo sapiens, UniProt P14735); assay: recombinant IDE activation, cell-free – biochemical, fluorescence polarization, counter-screen for IDE activator project, dose response (AID 588681)
T2 sequence (P14735 whole entry): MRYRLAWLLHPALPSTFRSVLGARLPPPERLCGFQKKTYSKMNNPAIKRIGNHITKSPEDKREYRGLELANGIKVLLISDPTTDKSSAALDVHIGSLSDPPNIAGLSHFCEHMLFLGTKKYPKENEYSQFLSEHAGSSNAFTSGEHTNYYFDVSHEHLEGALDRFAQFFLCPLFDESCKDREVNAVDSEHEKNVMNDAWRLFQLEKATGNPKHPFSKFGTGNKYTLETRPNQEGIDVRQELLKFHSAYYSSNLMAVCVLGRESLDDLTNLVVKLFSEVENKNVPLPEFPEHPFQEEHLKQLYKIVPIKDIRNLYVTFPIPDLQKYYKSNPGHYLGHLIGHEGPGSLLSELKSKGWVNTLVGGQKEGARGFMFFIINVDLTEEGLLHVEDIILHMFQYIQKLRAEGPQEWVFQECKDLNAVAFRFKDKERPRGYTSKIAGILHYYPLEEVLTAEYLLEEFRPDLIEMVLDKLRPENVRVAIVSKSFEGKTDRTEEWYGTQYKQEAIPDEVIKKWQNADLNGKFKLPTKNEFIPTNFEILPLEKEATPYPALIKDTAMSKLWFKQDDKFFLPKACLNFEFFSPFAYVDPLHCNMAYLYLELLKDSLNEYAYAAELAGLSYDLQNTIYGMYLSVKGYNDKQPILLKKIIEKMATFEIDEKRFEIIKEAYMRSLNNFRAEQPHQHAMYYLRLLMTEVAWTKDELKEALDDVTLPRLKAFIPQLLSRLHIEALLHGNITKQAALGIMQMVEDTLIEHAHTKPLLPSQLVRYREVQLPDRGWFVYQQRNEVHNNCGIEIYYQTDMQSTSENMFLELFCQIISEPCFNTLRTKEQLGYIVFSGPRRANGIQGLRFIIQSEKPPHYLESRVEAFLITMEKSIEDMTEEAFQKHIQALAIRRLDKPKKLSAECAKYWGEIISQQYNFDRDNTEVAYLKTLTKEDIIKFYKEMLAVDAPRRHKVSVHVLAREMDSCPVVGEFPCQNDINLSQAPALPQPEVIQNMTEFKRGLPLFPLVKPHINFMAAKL

Keap1/Nrf2 = Keap1/Nrf2 (Homo sapiens, UniProt Q14145); assay: disruptors of Keap1 binding to Nrf2 peptide – biochemical, fluorescence polarization, cherry-picked samples, dose response (AID 588683)
Keap1/Nrf2, sequence (Q16236 whole entry): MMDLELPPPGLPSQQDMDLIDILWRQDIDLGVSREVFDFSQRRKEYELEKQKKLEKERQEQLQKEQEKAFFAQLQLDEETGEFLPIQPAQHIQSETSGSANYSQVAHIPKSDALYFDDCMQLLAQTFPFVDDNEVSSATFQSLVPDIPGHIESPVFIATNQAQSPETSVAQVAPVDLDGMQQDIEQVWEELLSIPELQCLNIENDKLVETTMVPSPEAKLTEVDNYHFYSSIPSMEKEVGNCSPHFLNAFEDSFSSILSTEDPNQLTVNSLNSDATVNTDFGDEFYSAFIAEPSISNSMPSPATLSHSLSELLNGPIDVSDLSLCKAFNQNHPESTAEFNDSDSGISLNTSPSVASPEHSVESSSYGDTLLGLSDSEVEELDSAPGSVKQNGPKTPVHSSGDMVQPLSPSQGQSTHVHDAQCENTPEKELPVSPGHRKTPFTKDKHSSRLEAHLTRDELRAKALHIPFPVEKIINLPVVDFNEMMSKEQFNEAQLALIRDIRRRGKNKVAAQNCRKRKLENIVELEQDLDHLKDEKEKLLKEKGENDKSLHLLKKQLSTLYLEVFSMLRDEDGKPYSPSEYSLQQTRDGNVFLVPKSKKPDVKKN
Keap1/Nrf2, sequence (Q14145 whole entry): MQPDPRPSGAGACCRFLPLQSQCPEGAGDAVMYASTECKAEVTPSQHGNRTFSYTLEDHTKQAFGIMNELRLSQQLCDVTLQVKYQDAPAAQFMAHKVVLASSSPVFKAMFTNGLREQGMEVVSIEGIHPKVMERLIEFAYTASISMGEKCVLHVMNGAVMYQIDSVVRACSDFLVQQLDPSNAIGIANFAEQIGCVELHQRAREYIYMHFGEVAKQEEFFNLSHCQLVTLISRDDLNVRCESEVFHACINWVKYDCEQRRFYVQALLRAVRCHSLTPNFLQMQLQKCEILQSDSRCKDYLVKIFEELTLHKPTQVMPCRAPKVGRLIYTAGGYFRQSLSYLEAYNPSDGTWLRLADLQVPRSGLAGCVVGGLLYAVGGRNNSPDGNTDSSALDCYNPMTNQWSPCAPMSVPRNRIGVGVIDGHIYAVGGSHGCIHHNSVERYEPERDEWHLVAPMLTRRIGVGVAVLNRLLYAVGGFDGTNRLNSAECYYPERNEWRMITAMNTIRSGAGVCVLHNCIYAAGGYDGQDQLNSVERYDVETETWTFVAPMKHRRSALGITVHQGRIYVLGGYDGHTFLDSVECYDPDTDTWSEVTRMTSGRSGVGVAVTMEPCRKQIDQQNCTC

Beta Lactamase = Beta Lactamase (Pseudomonas aeruginosa, UniProt Q932Y6); assay: BLA reporter interference, concentration series – BLA reporter cells, FRET fluorescence, artefact control for TLR9-MyD88 binding inhibitor project, dose response (AID 588341); format: cell-based;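 further: cell based assay in CHO-K1 cells stably expressing beta-lactamase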
Beta Lactamase, sequence (Q932Y6 whole entry): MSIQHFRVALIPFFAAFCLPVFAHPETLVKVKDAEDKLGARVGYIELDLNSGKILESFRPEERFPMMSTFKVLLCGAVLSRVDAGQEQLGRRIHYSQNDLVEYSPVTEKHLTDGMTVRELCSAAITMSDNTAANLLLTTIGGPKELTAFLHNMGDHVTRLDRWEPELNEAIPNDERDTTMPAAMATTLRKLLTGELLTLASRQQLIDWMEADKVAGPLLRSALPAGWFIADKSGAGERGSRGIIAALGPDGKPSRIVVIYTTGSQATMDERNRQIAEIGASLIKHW

Insulin-degrading enzyme [3] = target: T2, Insulin-degrading enzyme; assay: cellular IDE activation of Abeta substrate cleavage – fluorescence polarization, HEK cells, dose response (AID 588439); format: functional, cell-based
HEK293 [4] = assay: membrane integrity loss in HEK cells – cell-based, fluorescence, cytotoxicity control for IDE activator project, dose response (AID 588440); format: functional; conditions: Homo sapiens;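 further: cytotoxicity by LDH release measuring loss of membrane integrity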
[5] = target: Dual specificity tyrosine-phosphorylation-regulated kinase 1A (Rattus norvegicus, UniProt Q63470); format: biochemical, Homo sapiens
HEK293 [6] = assay: optical interference in Abeta FP readout, dose response, artefact control for IDE activator project, biochemical, fluorescence polarization (AID 588442); format: functional, cell-based; conditions: Homo sapiens
[7] = target: T3, Rac GTPase-activating protein 1 (Homo sapiens, UniProt Q9H0H5); assay: blockers of MgcRacGAP-driven Rac1 GTP hydrolysis – biochemical, ADP Hunter fluorescence, primary and confirmatory, confirmation (AID 624330); format: functional
T3 sequence (Q9H0H5 whole entry): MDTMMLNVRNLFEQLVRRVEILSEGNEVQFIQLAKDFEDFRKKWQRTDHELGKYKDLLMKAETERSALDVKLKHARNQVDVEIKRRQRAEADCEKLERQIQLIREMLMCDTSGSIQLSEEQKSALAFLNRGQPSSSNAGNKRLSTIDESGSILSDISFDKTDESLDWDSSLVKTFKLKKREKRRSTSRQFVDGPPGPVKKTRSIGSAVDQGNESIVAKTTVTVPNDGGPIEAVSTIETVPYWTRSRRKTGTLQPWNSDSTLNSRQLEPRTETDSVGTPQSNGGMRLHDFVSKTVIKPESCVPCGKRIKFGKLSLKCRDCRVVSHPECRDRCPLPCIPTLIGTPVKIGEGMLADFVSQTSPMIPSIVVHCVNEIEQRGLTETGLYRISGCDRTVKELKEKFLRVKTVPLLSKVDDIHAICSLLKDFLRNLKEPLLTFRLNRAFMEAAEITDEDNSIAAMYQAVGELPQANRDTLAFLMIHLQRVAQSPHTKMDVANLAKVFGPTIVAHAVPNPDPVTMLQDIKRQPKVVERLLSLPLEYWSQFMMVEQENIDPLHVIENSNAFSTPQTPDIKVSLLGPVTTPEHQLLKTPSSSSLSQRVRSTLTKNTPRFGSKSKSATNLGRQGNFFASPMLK

Large T antigen, sequence (P03070 whole entry): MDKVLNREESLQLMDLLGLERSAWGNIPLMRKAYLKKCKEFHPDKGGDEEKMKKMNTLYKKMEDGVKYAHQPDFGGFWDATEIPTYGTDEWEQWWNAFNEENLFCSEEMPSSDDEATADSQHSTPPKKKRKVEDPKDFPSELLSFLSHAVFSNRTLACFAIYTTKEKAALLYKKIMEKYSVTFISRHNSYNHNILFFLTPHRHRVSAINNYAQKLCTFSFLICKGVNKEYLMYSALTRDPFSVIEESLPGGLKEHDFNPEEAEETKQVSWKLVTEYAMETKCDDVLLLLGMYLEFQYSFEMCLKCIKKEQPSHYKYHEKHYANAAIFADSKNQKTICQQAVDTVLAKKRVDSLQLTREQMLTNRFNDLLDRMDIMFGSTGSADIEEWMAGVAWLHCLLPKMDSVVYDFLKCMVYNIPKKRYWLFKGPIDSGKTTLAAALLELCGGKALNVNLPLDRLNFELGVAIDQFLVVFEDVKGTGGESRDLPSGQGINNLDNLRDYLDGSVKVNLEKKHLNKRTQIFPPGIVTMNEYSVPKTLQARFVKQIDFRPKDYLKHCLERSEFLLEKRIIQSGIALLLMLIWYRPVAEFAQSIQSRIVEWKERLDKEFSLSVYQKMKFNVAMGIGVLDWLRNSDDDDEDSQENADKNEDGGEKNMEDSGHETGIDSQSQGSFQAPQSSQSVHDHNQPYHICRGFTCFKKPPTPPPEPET

CC1=NCCc2c1[nH]c1cc(O)ccc21
IC50 (Large T antigen): 8.18 µM (active)
AC50 (ORF 73): 1.76 µM (active)
IC50 (CHO): > 49.8 µM (inactive)
AC50 [1]: 5.89 µM (active)
EC50 (Insulin-degrading enzyme [2]): > 54.6 µM (inactive)
AC50 (Keap1/Nrf2): 4.36 µM (active)
IC50 (Beta Lactamase): 7.96 µM (active)
EC50 (Insulin-degrading enzyme [3]): > 54.6 µM (inactive)
IC50 (HEK293 [4]): > 89.1 µM (inactive)
AC50 [5]: 3.13 µM (active)
EC50 (HEK293 [6]): > 54.6 µM (inactive)
IC50 [7]: 8.73 µM (active)

— ChEMBL document CHEMBL1201862, “PubChem BioAssay data set” (2004)
